Where two headings read alike, the source gives them in different places. [ ]: non-standard residue; d: D form. Nva = CCC[C@H](N)C(=O)O
Key:
[1] = Stability in human plasma at 37° C.; type: in vitro ADME; details: for % of Time 0 / remaining at 1 h, 1000 ng/ml / remaining at 8 h, 1000 ng/ml / remaining at 22 h, 1000 ng/ml: 1000 ng/ml; for % of Time 0: 0.00 hrs, N=3; for remaining at 1 h, 1000 ng/ml / remaining at 8 h, 1000 ng/ml / remaining at 22 h, 1000 ng/ml: N=3, read-out: % of Time 0; for resistance to proteolytic degradation compared with GLP1 peptide: 8 and 22 hours of incubation
Method: The stability and resistance to proteolytic degradation of a number of ALY688-GLP1v fusion peptides were assessed following incubation in human plasma at 37° C.
HPLC (Supelco Discovery BIO Wide Pore C5-3 (2.1×50 mm) with a slow gradient to separate possible degradation products) was used to quantify each peptide. High resolution mass spectrometry (Thermo Q Exactive) Plus was used to collect full scan and MS2 spectra to characterize any possible degradants. The data were evaluated both manually and using Proteome Discoverer data mining software.
In the above tables, Temperature=37° C., Concentration=1000 ng/ml, and N=3/time point.

[2] = Oral glucose tolerance test after single intravenous injection in mice; type: in vivo; details: mice fasted 4 hours, intravenous injection 10 minutes before oral glucose load 1 g/kg
Method: The oral glucose load was 1 g glucose/kg body weight. Blood glucose levels were measured with a glucometer at time −30 minutes, 0 (right before the oral glucose load), 15, 30, 60 and 90 minutes after the oral glucose load. Mice were euthanized after the time 90 minutes.

[3] = Pharmacokinetic profile in mice after single subcutaneous injection; type: in vivo; details: 10 mg/kg; for AUC(0-t) / Cmax / Tmax: mouse, sc, plasma
Method: GLP1v peptide (with Gly8 substitution) and GLP1v fusion peptides were administered once by subcutaneous injection (concentration=10 mg/kg). Blood was collected into K2EDTA tubes containing a cocktails of protease inhibitors (DPP-4 and Aprotinin). The Bioanalytical Method BAM.0634.01 was used for the quantitation of GLP1v and GLP1v fusion peptides in K2EDTA mouse plasma. It is based on protein precipitation extraction followed by LC-MS/MS instrumental analysis and covers a measurement range from 1.00 to 1000 ng/mL. Samples were analyzed on a Waters Acquity liquid chromatograph interfaced with a Thermo Scientific TSQ Vantage triple quadrupole mass spectrometer with ESI ionization.

[4] = system: P38MAPK (T180/Y182) phosphorylation; details: L6 murine skeletal muscle cells, ALY688 alone, previously shown; cited from earlier work

Compound | % of Time 0 [1] | remaining at 1 h, 1000 ng/ml [1] | remaining at 8 h, 1000 ng/ml [1] | remaining at 22 h, 1000 ng/ml [1] | resistance to proteolytic degradation compared with GLP1 peptide [1] | blood glucose levels after glucose load [2] | change in AUC / total exposure compared with GLP1v peptide [3] | AUC(0-t) [3] | Cmax [3] | Tmax [3] | P38MAPK (T180/Y182) phosphorylation [4] | change in Tmax compared with GLP1v peptide [3] | remaining at 1 h, 1000 ng/ml ([1]; human plasma (K2EDTA)) | remaining at 8 h, 1000 ng/ml ([1]; human plasma (K2EDTA)) | remaining at 22 h, 1000 ng/ml ([1]; human plasma (K2EDTA))
CCC[C@H](NC(=O)[C@@H]1CCCN1C(=O)[C@@H](NC(=O)[C@H](N)CC(N)=O)[C@@H](C)CC)C(=O)N[C@@H](CC(C)C)C(=O)N[C@@H](Cc1ccc(O)cc1)C(=O)N[C@H](CO)C(=O)N[C@@H](Cc1ccccc1)C(=O)N[C@@H](C)C(=O)N[C@H](CO)C(=O)NCC(=O)NCC(=O)NCC(=O)NCCCC[C@H](NC(=O)[C@H](C)NC(=O)[C@H](C)NC(=O)[C@H](CCC(N)=O)NC(=O)CNC(=O)[C@H](CCC(=O)O)NC(=O)[C@H](CC(C)C)NC(=O)[C@H](Cc1ccc(O)cc1)NC(=O)[C@H](CO)NC(=O)[C@H](CO)NC(=O)[C@@H](NC(=O)[C@H](CC(=O)O)NC(=O)[C@H](CO)NC(=O)[C@@H](NC(=O)[C@H](Cc1ccccc1)NC(=O)[C@@H](NC(=O)CNC(=O)[C@H](CCC(=O)O)NC(=O)CNC(=O)[C@@H](N)Cc1c[nH]cn1)[C@@H](C)O)[C@@H](C)O)C(C)C)C(=O)N[C@@H](CCC(=O)O)C(=O)N[C@@H](Cc1ccccc1)C(=O)N[C@H](C(=O)N[C@@H](C)C(=O)N[C@@H](Cc1c[nH]c2ccccc12)C(=O)N[C@@H](CC(C)C)C(=O)N[C@H](C(=O)N[C@@H](CCCCN)C(=O)NCC(=O)N[C@@H](CCCNC(=N)N)C(N)=O)C(C)C)[C@@H](C)CC [ALY688-GLP1v(Lys26)] | 100% | 99% | 74% | 40% | better resistance to proteolytic degradation | greater glucose lowering action | two-fold increase | 1020 ng·h/mL | 1610 ng/mL | 10 min |  |  |  |  | 
H-DAsn-Ile-Pro-Nva-Leu-Tyr-DSer-Phe-Ala-DSer-NH2 (H-[dN]IP[Nva]LY[dS]FA[dS]-NH2; SMILES CCC[C@H](NC(=O)[C@@H]1CCCN1C(=O)[C@@H](NC(=O)[C@H](N)CC(N)=O)[C@@H](C)CC)C(=O)N[C@@H](CC(C)C)C(=O)N[C@@H](Cc1ccc(O)cc1)C(=O)N[C@H](CO)C(=O)N[C@@H](Cc1ccccc1)C(=O)N[C@@H](C)C(=O)N[C@H](CO)C(N)=O) [ALY688, 10 amino acid chemically synthesized adiponectin receptor agonist peptide, reference compound] |  |  |  |  |  | no glucose effect |  |  |  |  | increased |  |  |  | 
CCC[C@H](NC(=O)[C@@H]1CCCN1C(=O)[C@@H](NC(=O)[C@H](N)CC(N)=O)[C@@H](C)CC)C(=O)N[C@@H](CC(C)C)C(=O)N[C@@H](Cc1ccc(O)cc1)C(=O)N[C@H](CO)C(=O)N[C@@H](Cc1ccccc1)C(=O)N[C@@H](C)C(=O)N[C@H](CO)C(=O)NCC(=O)NCC(=O)NCC(=O)NCCCC[C@H](NC(=O)[C@H](C)NC(=O)[C@H](C)NC(=O)[C@H](CCC(N)=O)NC(=O)CNC(=O)[C@H](CCC(=O)O)NC(=O)[C@H](CC(C)C)NC(=O)[C@H](Cc1ccc(O)cc1)NC(=O)[C@H](CO)NC(=O)[C@H](CO)NC(=O)[C@@H](NC(=O)[C@H](CC(=O)O)NC(=O)[C@H](CO)NC(=O)[C@@H](NC(=O)[C@H](Cc1ccccc1)NC(=O)[C@@H](NC(=O)CNC(=O)[C@H](CCC(=O)O)NC(=O)CNC(=O)[C@@H](N)Cc1c[nH]cn1)[C@@H](C)O)[C@@H](C)O)C(C)C)C(=O)N[C@@H](CCC(=O)O)C(=O)N[C@@H](Cc1ccccc1)C(=O)N[C@H](C(=O)N[C@@H](C)C(=O)N[C@@H](Cc1c[nH]c2ccccc12)C(=O)N[C@@H](CC(C)C)C(=O)N[C@H](C(=O)N[C@@H](CCCCNC(=O)CNC(=O)CNC(=O)CNC(=O)[C@@H](CO)NC(=O)[C@H](C)NC(=O)[C@H](Cc1ccccc1)NC(=O)[C@@H](CO)NC(=O)[C@H](Cc1ccc(O)cc1)NC(=O)[C@H](CC(C)C)NC(=O)[C@H](CCC)NC(=O)[C@@H]1CCCN1C(=O)[C@@H](NC(=O)[C@H](N)CC(N)=O)[C@@H](C)CC)C(=O)NCC(=O)N[C@@H](CCCNC(=N)N)C(N)=O)C(C)C)[C@@H](C)CC [ALY688-GLP1v(Lys26,34)] |  |  |  |  |  |  | decrease in total exposure | 358 ng·h/mL | 372 ng/mL | 15 min |  | further increase in the Tmax |  |  | 
CC[C@H](C)[C@H](NC(=O)[C@H](Cc1ccccc1)NC(=O)[C@H](CCC(=O)O)NC(=O)[C@H](CCCCN)NC(=O)[C@H](C)NC(=O)[C@H](C)NC(=O)[C@H](CCC(N)=O)NC(=O)CNC(=O)[C@H](CCC(=O)O)NC(=O)[C@H](CC(C)C)NC(=O)[C@H](Cc1ccc(O)cc1)NC(=O)[C@H](CO)NC(=O)[C@H](CO)NC(=O)[C@@H](NC(=O)[C@H](CC(=O)O)NC(=O)[C@H](CO)NC(=O)[C@@H](NC(=O)[C@H](Cc1ccccc1)NC(=O)[C@@H](NC(=O)CNC(=O)[C@H](CCC(=O)O)NC(=O)CNC(=O)[C@@H](N)Cc1cnc[nH]1)[C@@H](C)O)[C@@H](C)O)C(C)C)C(=O)N[C@@H](C)C(=O)N[C@@H](Cc1c[nH]c2ccccc12)C(=O)N[C@@H](CC(C)C)C(=O)N[C@H](C(=O)N[C@@H](CCCCN)C(=O)NCC(=O)N[C@@H](CCCNC(=N)N)C(N)=O)C(C)C [GLP1v with Gly8 substitution, reference compound] | 100% |  |  |  |  | expected glucose-lowering activity |  | 525 ng·h/mL | 781 ng/mL | 5 min |  |  | 85% | 41% | 24%
CCC[C@H](NC(=O)[C@@H]1CCCN1C(=O)[C@@H](NC(=O)[C@H](N)CC(N)=O)[C@@H](C)CC)C(=O)N[C@@H](CC(C)C)C(=O)N[C@@H](Cc1ccc(O)cc1)C(=O)N[C@H](CO)C(=O)N[C@@H](Cc1ccccc1)C(=O)N[C@@H](C)C(=O)N[C@H](CO)C(=O)NCC(=O)NCC(=O)NCC(=O)NCCCC[C@H](NC(=O)[C@@H](NC(=O)[C@H](CC(C)C)NC(=O)[C@H](Cc1c[nH]c2ccccc12)NC(=O)[C@H](C)NC(=O)[C@@H](NC(=O)[C@H](Cc1ccccc1)NC(=O)[C@H](CCC(=O)O)NC(=O)[C@H](CCCCN)NC(=O)[C@H](C)NC(=O)[C@H](C)NC(=O)[C@H](CCC(N)=O)NC(=O)CNC(=O)[C@H](CCC(=O)O)NC(=O)[C@H](CC(C)C)NC(=O)[C@H](Cc1ccc(O)cc1)NC(=O)[C@H](CO)NC(=O)[C@H](CO)NC(=O)[C@@H](NC(=O)[C@H](CC(=O)O)NC(=O)[C@H](CO)NC(=O)[C@@H](NC(=O)[C@H](Cc1ccccc1)NC(=O)[C@@H](NC(=O)CNC(=O)[C@H](CCC(=O)O)NC(=O)CNC(=O)[C@@H](N)Cc1c[nH]cn1)[C@@H](C)O)[C@@H](C)O)C(C)C)[C@@H](C)CC)C(C)C)C(=O)NCC(=O)N[C@@H](CCCNC(=N)N)C(N)=O [ALY688-GLP1v(Lys34)] | 100% | 95% | 74% | 49% | better resistance to proteolytic degradation | greater glucose lowering action | decrease in total exposure | 177 ng·h/mL | 267 ng/mL | 15 min |  | further increase in the Tmax |  |  | 

Reference: patent publication US20230021946A1, “MONOMERIC FUSION PEPTIDES AND METHOD OF USE THEREOF” (priority 2021, published 2023)
